Source: article PMC7665192, “A natriuretic peptide from Arabidopsis thaliana (AtPNP-A) can modulate catalase 2 activity” (Scientific Reports, 2020)
Positions of bridges follow the written chain, without caps; N, C: chain ends. Residues, ends and D or L forms follow the SMILES beside them. *: point of attachment. Biotin = O=C1N[C@H]2[C@H](CS[C@H]2CCCCC(=O)*)N1

Columns and labels:
rCAT2 = assay: Enzymatic activity of rCAT2, Amplex Red catalase assay; format: biochemical, Arabidopsis thaliana; conditions: 100 nM, Amplex Red catalase assay kit; three independent experiments, P < 0.01
Protocol: (§1) Enzymatic activity of CAT isozymes and total CAT activities of protein extracted from WT and atpnp-a or cat2-2 mutant lines, when indicated sprayed with 1 nM pAtPNP-A or pScr 20 min before harvesting, were determined zymographically and spectrophotometrically, as described in[56]. Relative quantification of intensity of bands corresponding to different CAT isoforms was performed with ImageJ version 1.48 (https://imagej.nih.gov/ij/). Enzymatic activity of the rCAT2 in the presence of absence of 100 nM rAtPNP-A, pAtPNP-A or pScr were determined with the use of Amplex Red catalase assay kit (Invitrogen) according to the manufacturer’s instructions.
(§2) Figure 3 AtPNP-A directly interacts with CAT2 to modulate its enzymatic activity in vitro. (a) Zymogram depicting changes in the enzymatic activity of CAT isoforms extracted from wild type (WT) or cat2-2 knockout mutant seedlings in response to 1 nM pAtPNP-A or pScr. Densitometric semi-quantification of bands corresponding to CAT2, normalized to the loading control (dark-coloured band on zymogram) for WT samples treated with 1 nM pAtPNP-A or pScr (mean ± SD, Student’s t-test, n = 3, P < 0.05). […] (b) Total CAT activity in protein extracted from WT seedlings assayed with Amplex Red catalase assay kit in the presence of 1 nM pAtPNP-A, rAtPNP-A, or pScr. […] (c) Enzymatic activity of rCAT2 in the presence of 100 nM pAtPNP-A, rAtPNP-A, or pScr.

CAT = assay: Total CAT activity in protein extracted from WT seedlings; format: biochemical, Arabidopsis thaliana; conditions: 1 nM
Protocol: as §1, §2

[1] = test system: A. thaliana (Col-0) mesophyll cell protoplasts; assay: Mesophyll cell protoplast swelling (volume); format: cell-based, Arabidopsis thaliana; conditions: 100 nM peptide or 1 μg mL^−1 rAtPNP-A, 0.4 M mannitol, 20 min, room temperature, n = 50, P < 0.0001
From the text: Peptides containing amino acid sequence of the active region of AtPNP-A and corresponding scrambled peptides, having the same amino acid composition but in a randomized order (Fig. 1a), with or without C-terminal biotin tag, were synthesized by GenScript (Piscataway, USA) at the purity level > 95% verified with HPLC and their biological activity was verified as described previously.
Figure 1 Biologically active peptide containing the active region of AtPNP-A protein binds to CAT2. (a) Domain organization of AtPNP-A and the amino acid sequences of C-terminally biotinylated peptides used in affinity chromatography-based experiments—a peptide containing the active site of AtPNP-A (indicated as pAtPNP-A) or the corresponding scrambled peptide (indicated as pScr). Cysteine residues forming a disulfide bond, characteristic to natriuretic peptide (NP)-like molecules, are underlined. SP, signal peptide. (b) Assaying biological activity of the AtPNP-A peptide (pAtPNP-A) and purified recombinant protein (rAtPNP-A). […] In each treatment, 50 randomly selected protoplasts with diameter > 20 µm were included in quantitative analysis (scale bar = 20 µm). Protoplast volume was measured and the data obtained from an exemplar experiment are plotted. […]

stomata = conditions: cited from earlier work
From the text: A PNP_CAT interaction in plant responses to infecting pathogens is not surprising. CATs commonly function to down-regulate ROS during ABA-induced stomatal closure, and ABA-induced stomatal closure can be inhibited by removal of H2O2 via CAT2[73],[74]. […] Therefore, it is tempting to speculate that AtPNP-A modulates the effect of ABA on stomatal aperture through the interaction w ...

P. syringae = test system: P. syringae; set-up: method as in PMID 32409317, PMID 28401640; conditions: cited from earlier work
CAT2 = assay: Bimolecular fluorescence complementation (BiFC); format: cell-based, Arabidopsis thaliana; conditions: chloroplasts of tobacco leaf protoplasts; NeYFP/CeYFP fusions; mean ± SEM, n = 30, P < 0.0001
From the text: The full-length A. thaliana AtPNP-A (At2g18660) coding region entry plasmid pENTRYAtPNP-A[46] and pCR8/GW-TOPOCAT2 were recombined separately with both pSITE-nEYFP-C1 [GenBank Accession Number GU734651] and pSITE-cEYFP-C1 [GenBank Accession Number GU734652] to create pNeYFP-AtPNP-A, pCeYFP-AtPNP-A, pNeYFP-CAT2 and pCeYFP-CAT2, respectively. Each plasmid has either the N-terminal (NeYFP) or C-terminal (CeYFP) fragment of eYFP followed by either AtPNP-A or CAT2 coding region driven by the 35S plant expression promoter. After sequence was confirmed each plasmid was transformed separately into Agrobacterium tumefaciens strain GV3101 (pMP90). Tobacco leaves were infiltrated as previously described in[50]. Briefly, A. tumefaciens strains grown in 2YT medium were harvested by centrifugation and resuspended in infiltration medium (10 mM MES pH 5.6, 10 mM MgCl2, 150 µM acetosyringone) to a final OD600 of 0.2. Equal volumes of infiltration media containing relevant BiFC strains were mixed and infiltrated into the underside of tobacco leaves using a needleless syringe. Leaves were harvested after 3 days to isolate protoplasts following[51] and then immediately imaged.
BiFC images were captured at the La Trobe University LIMS BioImaging Facility using a LSM 510 confocal laser scanning microscope (Zeiss), with a × 40/1.2 water immersion objective. The natural red autofluorescence of chlorophyll was used as a marker for chloroplasts. Excitation/emission wavelengths were 488/505–530 nm for YFP and 561/650 nm long pass for red fluorescence. At least three images containing one or more protoplasts were taken for each of the plasmid construct combinations. Each image captured three separate filter scans, including YFP, red fluorescence and bright field. Post-processing of images was performed with ImageJ version 1.48 software (https://imagej.nih.gov/ij/). For each image the contrast for each panel was set at automatic contrast. A merged image was generated for reference with a 10 µm scale bar. The red fluorescence only panel was used to encircle ten chloroplasts as region of interest (ROI), then the YFP fluorescence (BiFC) calculated for each ROI was divided by the red fluorescence calculated for the same ROI. All BiFC/red fluorescence points were plotted using GraphPadPrism7 (GraphPadSoftware). Mean and standard error were calculated for each BiFC combination. All statistical analyses were performed using GraphPadPrism7.
Figure 4 AtPNP-A interacts with CAT2 in vivo. […] Exemplar merged images of protoplasts isolated from a leaf infiltrated with different combinations of N- or C-terminally tagged CAT2 and AtPNP-A are shown. (g) BiFC/Red fluorescence chloroplast analysis with mean ± SEM in pink.

## CC(C)C[C@@H]1NC(=O)[C@H](CC(N)=O)NC(=O)[C@H](CC(N)=O)NC(=O)[C@H](CCCCN)NC(=O)[C@H](C(C)C)NC(=O)CNC(=O)[C@H](C(C)C)NC(=O)[C@H](C(C)C)NC(=O)[C@H](CC(C)C)NC(=O)[C@H]([C@@H](C)O)NC(=O)[C@H](CCC(=O)O)NC(=O)[C@H](CCCNC(=N)N)NC(=O)[C@H](CCC(N)=O)NC(=O)[C@H]([C@@H](C)O)NC(=O)CNC(=O)[C@H](Cc2ccc(O)cc2)NC(=O)[C@@H](NC(=O)[C@H](C)NC(=O)[C@H](CO)NC(=O)[C@H](CCCNC(=N)N)NC(=O)[C@@H](NC(=O)[C@H](Cc2ccc(O)cc2)NC(=O)[C@@H]2CCCN2)[C@@H](C)O)CSSC[C@@H](C(=O)NCC(=O)N[C@@H](CCCNC(=N)N)C(=O)N[C@@H](CCCNC(=N)N)C(=O)N[C@@H](Cc2ccc(O)cc2)C(=O)N[C@@H](CCCNC(=N)N)C(=O)N[C@H](C(=O)N[C@@H](CCCNC(=N)N)C(=O)N[C@@H](CCCCNC(=O)CCCC[C@@H]2SC[C@@H]3NC(=O)N[C@@H]32)C(=O)O)C(C)C)NC(=O)[C@H](C)NC(=O)[C@H](CCCNC(=N)N)NC(=O)CNC(=O)[C@H](CC(N)=O)NC(=O)[C@H](CCC(N)=O)NC(=O)[C@H](Cc2c[nH]c3ccccc23)NC1=O [pAtPNP-A] (H-PYTRSACYGTQRETLVVGVKNNLWQNGRACGRRYRVRK(Biotin)-OH; disulfide 7-30; N-terminus and C-terminus assumed)
rCAT2
  In vitro enzymatic activity of rCAT2: significantly enhanced
CAT; WT seedling protein, Amplex Red kit, mean ± SD, n = 3, P < 0.05
  Total CAT activity of protein extracts: elevated total CAT activity
CAT; total protein extracted from WT seedlings, n = 3
  H2O2 breakdown by WT seedling protein extract: more rapid H2O2 breakdown
[1]
  Protoplast swelling response (volume): significantly greater than the response elicited by the scrambled peptide (pScr)

## AtPNP-A: An A. thaliana PNP, termed AtPNP-A (At2g18660; Q9ZV52)
stomata
  Effect on ABA-induced stomatal closure: significantly delay and reduce the extent of ABA-induced stomatal closure
P. syringae
  Role in response to P. syringae infection: protective role in the response to infection with P. syringae
CAT2
  BiFC / Red fluorescence signal, interaction with CAT2: interaction of the proteins in chloroplasts of protoplasts
